In the test the target is T1, CDK9 (Homo sapiens, UniProt P50750).
T1 construct: with CyclinT1
The test can be described thus: IMAP fluorescence polarisation kinase assay with CDK9/CyclinT1 (TAMRA-Rbtide, […] ATP); radiometric selectivity panel of […] CDK/cyclin pairs. The class given is biochemical.

Here are results for one compound from article PMC11106072, “CDK9 inhibition as an effective therapy for small cell lung cancer” (Cell Death & Disease, 2024).

Usually IC50 stands for the concentration needed to halve the response being measured. A high value points to lower potency.

T1 sequence (P50750 whole entry): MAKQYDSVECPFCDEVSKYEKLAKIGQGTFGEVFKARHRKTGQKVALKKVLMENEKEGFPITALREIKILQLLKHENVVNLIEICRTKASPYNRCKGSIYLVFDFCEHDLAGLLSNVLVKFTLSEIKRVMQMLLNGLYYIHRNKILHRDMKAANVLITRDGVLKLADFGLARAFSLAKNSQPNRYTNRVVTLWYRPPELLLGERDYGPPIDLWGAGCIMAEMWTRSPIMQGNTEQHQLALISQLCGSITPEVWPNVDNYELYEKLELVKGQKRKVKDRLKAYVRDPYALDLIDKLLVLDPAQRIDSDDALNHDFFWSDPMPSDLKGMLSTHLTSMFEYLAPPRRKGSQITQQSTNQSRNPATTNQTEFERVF
T1 sequence (O60563 whole entry partner): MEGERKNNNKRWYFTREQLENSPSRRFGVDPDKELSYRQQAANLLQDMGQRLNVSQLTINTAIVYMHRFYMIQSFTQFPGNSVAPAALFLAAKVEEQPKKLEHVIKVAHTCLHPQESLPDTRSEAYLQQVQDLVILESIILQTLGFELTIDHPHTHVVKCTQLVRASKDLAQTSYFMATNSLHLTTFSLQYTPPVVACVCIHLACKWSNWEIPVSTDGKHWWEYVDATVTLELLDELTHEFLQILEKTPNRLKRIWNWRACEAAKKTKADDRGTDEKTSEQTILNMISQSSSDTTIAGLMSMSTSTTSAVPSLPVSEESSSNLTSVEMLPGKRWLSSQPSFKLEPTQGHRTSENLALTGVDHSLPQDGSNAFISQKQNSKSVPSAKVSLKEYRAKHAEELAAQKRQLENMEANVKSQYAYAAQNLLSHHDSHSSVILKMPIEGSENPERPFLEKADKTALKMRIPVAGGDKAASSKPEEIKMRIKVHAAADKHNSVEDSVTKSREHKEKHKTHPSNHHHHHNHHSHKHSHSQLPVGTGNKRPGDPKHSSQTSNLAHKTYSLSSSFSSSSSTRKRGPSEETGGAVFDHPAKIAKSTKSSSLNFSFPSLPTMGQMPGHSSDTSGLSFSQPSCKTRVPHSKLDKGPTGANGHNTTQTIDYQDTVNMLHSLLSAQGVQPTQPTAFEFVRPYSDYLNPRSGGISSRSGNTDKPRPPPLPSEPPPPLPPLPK

`COc1ccccc1-c1ncnc(Nc2cccc(Cn3cnc4ccccc43)c2)n1` [VC-1, VCC972839:01] yielded an IC50 of 7 nM.
